We go through 41 molecules from US9440941B2, “Substituted chroman-6-yloxy-cycloalkanes and their use as pharmaceuticals” (SANOFI, priority 2013, dated 2016).

In the test the target is T1, human NCX1 (Homo sapiens, UniProt P32418).
T1 construct: expressed in transfected cells
As to the kind of experiment: Inhibition of Ca2+ influx into cells (NCX1 reverse mode), FLIPR Fluo-4 assay. It is filed as cell-based. As to conditions: for IC50: inhibition of NCX1 in reverse mode (Ca2+ influx into cells), read-out: NCX1rv IC50; for inhibition at 10 µM: NCX1 reverse mode, IC50 value not determined, read-out: Inhibition in % at 10 μM (NCX1rv). The text has this:
The sodium/calcium exchanger NCX1 can transport calcium ions and sodium ions through the cell membrane. The transport is an exchange of Ca^2+ and Na^+ in two directions depending on membrane potential and ion gradients. At the first direction, named “forward mode” or “calcium export mode”, Ca^2+ is transported out of the cell and Na^+ is transported into the cell. At the other direction, named “reverse mode” or “calcium import mode”, the transport directions are vice versa. The effect of the compounds of the invention on NCX1 was determined in CHO cells stably expressing human NCX1 (gene symbol SLC8A1; cf. WO 2009/115238). The assay is based on the monitoring of intracellular Ca^2+ concentrations using a calcium-sensitive fluorescence dye which is detected by means of a FLIPR device (Fluorimetric Imaging Plate Reader, Molecular Devices).
Assay Technology—Reverse Mode
The assay is based on the monitoring of intracellular Ca^2+ concentrations using the calcium-sensitive dye Fluo-4. CHO cells expressing NCX1 were loaded with the dye by means of the acetoxymethyl ester Fluo-4 AM (Invitrogen, F14202), which is cleaved intracellularly by esterase activity to yield the charged species of free Fluo-4. After an preincubation period with the test compound, Gramicidine (Sigma, G5002) was added. Gramicidine is an ionophor for Na^+ ions mediating an increase of intracellular Na^+ ions. Consequently, intracellular Na^+ ions are exchanged against extracellular Ca^2+ ions (Ca^2+ influx, reverse mode). The intracellular elevation of Ca^2+ ions was detected by measuring the fluorescence of Fluo-4 at a wavelength of 520 nm by a FLIPR device.
Briefly, for the reverse mode transport assay 18000 cells per well were seeded into a 96 well microplate (Corning COSTAR 3904) and incubated overnight in culture medium (1× Nut Mix F12 (Ham) (Gibco, 21765-029); 10% (v/v) fetal calf serum (PAA Gold, A15-649); 450 μg/ml Geneticin (Gibco, 10131-027)). A total volume of 100 μl medium per well was used. For the preparation of the FLIPR assay, the culture medium was removed from the plates and 100 μl of dye solution (2 μM Fluo-4 AM; 0.02% (v/v) Pluronic F-127 (20%, Invitrogen, P3000MP); 0.1% (v/v) bovine albumin solution (30% (v/v), Sigma, A9205) in assay buffer (133.8 mM NaCl (Sigma, S5886); 4.7 mM KCl (Sigma, P3911); 1.25 mM MgCl2 (Merck, 1.05833.0250); 3.5 mM CaCl2 (Merck, 1.02083.0250); 5 mM glucose (Sigma, G7021); 10 mM Hepes (Sigma, H4034); 0.01% (v/v) Pluronic F-127 (5%, Sigma, P2443); 2.5 mM Probenecid (Maybridge, SB00915EB); pH 7.4)) were added into each well. The plates were incubated in the dark at room temperature for 80 min. After the incubation period, the dye solution was removed and the wells were washed with 100 μl of assay buffer. Then 80 μl of a solution of the test compound in assay buffer in different concentrations were added into the wells. The plates were incubated at 16° C. for 45 min. Meanwhile a 60 μM solution of Gramicidine in assay buffer (4° C.) was prepared and stored in the wells of a 96 well microplate (96 well microplate, polypropylene, U-shape (Greiner Bio-One, 650201)) at 4° C. until measurement was started. The fluorescence monitoring was performed at 240 measuring points with measurement intervals of 2 sec. After the fifth measuring point, 40 μl of the Gramicidine solution were added to each well of the assay plates to give a final Gramicidine concentration of 20 μM. For the determination of the IC50 values the minimal fluorescence value was subtracted from the maximal fluorescence value for all measuring points. The calculation of the IC50 values via the percentage inhibitions of Ca^2+ influx into cells (reverse mode) effected by the test compound was performed in Biost@t Speed 2.0.

Structures can show the parent of a compound that is named as a salt.

For the molecule `O=C(NCCO)C1CCC(Oc2ccc3c(c2Cl)CCC(c2ccccc2)O3)CC1` (centres unmarked) [compound 291], the IC50 (in general, the concentration at which inhibition is half-maximal) was 1.1 µM.

For the molecule `CC(C)(C)CN[C@H]1CC[C@H](Oc2ccc3c(c2)CCC(c2ccccc2)O3)CC1` (relative stereo) [compound 58, N-(2,2-Dimethylpropyl)-[trans-4-(2-phenylchroman-6-yloxy)]-cyclohexylamine], the concentration for half-maximal inhibition (IC50) stood at 0.6 µM. Still for that read-out and setting: the result for `COc1cccc(C2CCc3cc(OC4CCC(C(=O)NCCO)CC4)ccc3O2)c1F` (centres unmarked) [compound 294] reads 1.3 µM; that for `CCSCCNC1CCC(Oc2ccc3c(c2)CCC(c2ccccc2F)O3)CC1` (centres unmarked) [compound 217], 2.3 µM. The same measure, in the same setting: then `O=C(NCc1ccno1)C1CCC(Oc2ccc3c(c2)CCC(c2ccccc2)O3)CC1` (centres unmarked) [compound 13], with 0.3 µM; and `Cc1nn(C)c(C)c1CCC(=O)N[C@H]1CC[C@H](Oc2ccc3c(c2)CCC(c2ccccc2F)O3)CC1` (relative stereo) [compound 254], with 0.3 µM. `Cc1nc(CN[C@H]2CC[C@H](Oc3ccc4c(c3)CCC(c3ccccc3)O4)CC2)cs1` (stereo partly drawn) [compound 59, N-(2-Methylthiazol-4-ylmethyl)-[trans-4-(2-phenylchroman-6-yloxy)]-cyclohexylamine]: the IC50 came to 0.5 µM. On the same count and under the same terms, then `N[C@H]1CC[C@H](Oc2ccc3c(c2)CC[C@H](c2ccccc2)O3)CC1` [compound 9, hydrochloride], with 0.3 µM. Still for that read-out and setting: then `COC[C@H](C)NC1CCC(Oc2ccc3c(c2)CCC(c2ccccc2F)O3)CC1` (some centres unmarked) [compound 221], with 2.3 µM. Still for that read-out and setting: then `Cc1ncsc1CN[C@H]1CC[C@H](Oc2ccc3c(c2)CCC(c2ccccc2)O3)CC1` (stereo partly drawn) [compound 67, N-(4-Methylthiazol-5-ylmethyl)-[trans-4-(2-phenylchroman-6-yloxy)]-cyclohexylamine], with 0.4 µM. As to `CCOCCCNC1CCC(Oc2ccc3c(c2)CCC(c2ccccc2C)O3)CC1` (centres unmarked) [compound 201], the inhibition (commonly the drop in the measured response relative to a control, in per cent) at 10 µM is 98%.

`c1ccc(C2CCc3cc(O[C@H]4CC[C@H](N(Cc5ccoc5)Cc5ccoc5)CC4)ccc3O2)cc1` (stereo partly drawn) [compound 85, N,N-Bis(furan-3-ylmethyl)-[trans-4-(2-phenylchroman-6-yloxy)]-cyclohexylamine]: the IC50 came out at 0.8 µM. Still for that read-out and setting: the result for `O=C(CCn1cccn1)N[C@H]1CC[C@H](Oc2ccc3c(c2)CCC(c2ccccc2F)O3)CC1` (single isomer, unassigned) [compound 253] reads 0.3 µM; that for `Cc1c(F)cccc1C1CCc2cc(OC3CCC(C(=O)NCCNS(C)(=O)=O)CC3)ccc2O1` (centres unmarked) [compound 277], 0.3 µM. Still for that read-out and setting: the result for `CCC(COC)NC1CCC(Oc2ccc3c(c2)CCC(c2ccccc2F)O3)CC1` (centres unmarked) [compound 222] reads 3.1 µM.

As to `COCCCNC1CCC(Oc2ccc3c(c2)CCC(c2ccccc2)O3)CC1` (centres unmarked) [compound 121], the IC50 was 0.7 µM.

For `CC(=O)NC[C@H]1CC[C@@H](Oc2ccc3c(c2)CCC(c2ccccc2)O3)CC1` (relative stereo) [compound 4], the IC50 was 0.4 µM. The same measure, in the same setting: the result for `COC(=O)CNC(=O)C1CCC(Oc2ccc3c(c2)CCC(c2ccccc2)O3)CC1` (single isomer, unassigned; stereoisomer 1) [compound 91, Methyl 2-{[cis-4-(2-phenylchroman-6-yloxy)cyclohexanecarbonyl]amino}acetate,stereoisomer 1 (2)] reads 0.4 µM. Turning to `Cn1ccc(CN(Cc2ccn(C)n2)[C@H]2CC[C@H](Oc3ccc4c(c3)CCC(c3ccccc3)O4)CC2)n1` (stereo partly drawn) [compound 84, N,N-Bis(1-methylpyrazol-3-ylmethyl)-[trans-4-(2-phenylchroman-6-yloxy)]-cyclohexylamine], the 50% inhibitory concentration (IC50) amounted to 0.8 µM. The same measure, in the same setting: the result for `N[C@H]1CC[C@H](Oc2ccc3c(c2)CCC(c2ccccc2)O3)CC1` (stereo partly drawn) [compound 5, trans-4-(2-Phenylchroman-6-yloxy)cyclohexylamine] reads 0.3 µM.

For the molecule `Cc1nc(CNC(=O)[C@H]2CC[C@@H](Oc3ccc4c(c3)CCC(c3ccccc3)O4)CC2)no1` (single isomer, unassigned; stereoisomer 1) [compound 95, N-(5-Methyl-[1,2,4]oxadiazol-3-ylmethyl)-[4-cis-(2-phenylchroman-6-yloxy)]-cyclohexanecarboxamide, stereoisomer 1 (2)], the IC50 is 0.2 µM. On the same count and under the same terms, then `Cc1nc(CC(=O)N[C@H]2CC[C@H](Oc3ccc4c(c3)CCC(c3ccccc3)O4)CC2)c(C)s1` (relative stereo) [compound 40], with 0.3 µM. Still for that read-out and setting: then `CO[C@H](C)C(=O)N[C@H]1CC[C@H](Oc2ccc3c(c2)CCC(c2ccccc2)O3)CC1` (some centres unmarked) [compound 23], with 0.3 µM; and `CS(=O)(=O)CCC(=O)N[C@H]1CC[C@H](Oc2ccc3c(c2)CCC(c2ccccc2)O3)CC1` (relative stereo) [compound 21], with 0.2 µM; and `Cc1cccc(C)c1C1CCc2cc(O[C@H]3CC[C@H](NC(=O)CCn4cccn4)CC3)ccc2O1` (relative stereo) [compound 172], with 7.1 µM. For the molecule “N-(2-Ethylsulfanylethyl)-4-(2-phenylchroman-6-yloxy)-cyclohexylamine [compound 131]”, the half-inhibitory concentration (IC50) was 0.6 µM. On the same count and under the same terms, then `CCCCNC1CCC(Oc2ccc3c(c2)CCC(c2ccccc2F)O3)CC1` (centres unmarked) [compound 230], with 2.9 µM. On the same count and under the same terms, then `CCCN[C@H]1CC[C@H](Oc2ccc3c(c2)CC[C@@H](c2ccccc2)O3)CC1` [compound 18], with 0.5 µM. As to `Cc1ccccc1C1CCc2cc(OC3CCC(NCCCC4CCOC4)CC3)ccc2O1` (centres unmarked) [compound 198], the inhibition at 10 µM stood at 97%. For “N-(3-Hydroxypropyl)-4-(2-phenylchroman-6-yloxy)-cyclohexanecarboxamide [compound 150]”, the IC50 came to 0.9 µM. Regarding `COCC(C)NC1CCC(Oc2ccc3c(c2)CCC(c2ccccc2F)O3)CC1` (centres unmarked) [compound 219], the 50% inhibitory concentration (IC50) is 2.4 µM. For the molecule `O=C(CSC(F)(F)F)N[C@H]1CC[C@H](Oc2ccc3c(c2)CCC(c2ccccc2F)O3)CC1` (relative stereo) [compound 260], the IC50 turned out to be 0.4 µM. `COCC(C)(C)CNC1CCC(Oc2ccc3c(c2)CCC(c2ccccc2C)O3)CC1` (centres unmarked) [compound 200]: the inhibition at 10 µM turned out to be 94%. With `CSC(C)CCNC1CCC(Oc2ccc3c(c2)CCC(c2ccccc2C)O3)CC1` (centres unmarked) [compound 175], the IC50 was determined as 3.5 µM.

For the molecule “N-[1-(Methoxymethyl)propyl]-4-(2-phenylchroman-6-yloxy)-cyclohexylamine [compound 133]”, the half-inhibitory concentration (IC50) is 1 µM. On the same count and under the same terms, the result for `Cc1nn(C)c(C)c1CN[C@H]1CC[C@H](Oc2ccc3c(c2)CCC(c2ccccc2)O3)CC1` (relative stereo) [compound 60] reads 0.4 µM; that for `Cc1ccccc1C1CCc2cc(O[C@H]3CC[C@@H](CNC(=O)CN)CC3)ccc2O1` (relative stereo) [compound 185, hydrochloride], 0.6 µM. As to `Cc1ccccc1C1CCc2cc(OC3CCC(NC4CCOCC4)CC3)ccc2O1` (centres unmarked) [compound 197], the inhibition at 10 µM is 96%. As to `CC(C)SCCNC1CCC(Oc2ccc3c(c2)CCC(c2ccccc2F)O3)CC1` (centres unmarked) [compound 232], the IC50 turned out to be 5.9 µM. The same measure, in the same setting: then `Cc1cccc(C)c1C1CCc2cc(OC3CCC(NCc4c(C)nn(C)c4C)CC3)ccc2O1` (centres unmarked) [compound 164], with 9.4 µM; and `O=C(Cn1cccn1)N[C@H]1CC[C@H](Oc2ccc3c(c2)CCC(c2ccccc2F)O3)CC1` (relative stereo) [compound 236], with 0.1 µM.
